Results on 6 compounds are retold here after ChEMBL document CHEMBL1681769, “Tetrahydroquinolin-3-yl carbamate glucocorticoid receptor agonists with reduced PEPCK activation” (Bioorg Med Chem Lett, 2011).

Each structure is given as a SMILES string.

The target of assay [1] is T1, Glucocorticoid receptor (Homo sapiens, UniProt P04150).
T1 sequence (P04150 whole entry): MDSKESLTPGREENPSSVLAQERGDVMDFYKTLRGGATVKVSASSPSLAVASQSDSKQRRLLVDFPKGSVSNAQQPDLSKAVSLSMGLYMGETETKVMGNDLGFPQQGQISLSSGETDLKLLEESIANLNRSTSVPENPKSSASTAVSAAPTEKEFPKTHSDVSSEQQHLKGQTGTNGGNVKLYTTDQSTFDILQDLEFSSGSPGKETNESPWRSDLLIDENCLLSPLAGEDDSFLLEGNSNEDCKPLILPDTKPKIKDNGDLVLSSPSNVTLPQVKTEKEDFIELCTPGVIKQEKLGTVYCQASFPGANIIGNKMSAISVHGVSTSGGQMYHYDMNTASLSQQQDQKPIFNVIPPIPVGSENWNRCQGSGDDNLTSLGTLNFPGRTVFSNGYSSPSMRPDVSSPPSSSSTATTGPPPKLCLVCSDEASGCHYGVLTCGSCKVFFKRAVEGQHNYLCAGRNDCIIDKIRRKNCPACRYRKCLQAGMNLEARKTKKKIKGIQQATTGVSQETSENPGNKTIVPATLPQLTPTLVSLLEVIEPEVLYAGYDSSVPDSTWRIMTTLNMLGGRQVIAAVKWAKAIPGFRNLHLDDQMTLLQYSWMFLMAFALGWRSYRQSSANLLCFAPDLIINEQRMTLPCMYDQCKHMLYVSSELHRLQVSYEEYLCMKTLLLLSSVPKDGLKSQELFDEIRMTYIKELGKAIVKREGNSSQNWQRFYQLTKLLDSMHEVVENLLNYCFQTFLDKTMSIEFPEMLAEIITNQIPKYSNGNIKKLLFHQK
Description: Displacement of radiolabeled Dexamethasone from GR

In assay [2] the target is T1, Glucocorticoid receptor. In kind it is functional, cell-based, CV-1.
Description: Agonist activity at GR expressed in african green monkey CV1 cells transfected with luciferase gene linked to MMTV promoter assessed as induction of luciferase transactivation activity
In assay [3] the target is T1, Glucocorticoid receptor. In kind it is functional, cell-based, H4IIEC3.
Description: Agonist activity at GR expressed in rat H4IIEC3 cells assessed as induction of PEPCK transactivation by luciferase reporter gene assay
Assay [4] concerns the target T1, Glucocorticoid receptor. In kind it is cell-based, HepG2.
Description: Transrepression activity at GR expressed in IL-1beta- and TNFalpha-stimulated HepG2 cells assessed as inhibition of NFKB- or AP-1 mediated E-selectin transcription by luciferase reporter gene assay
The target of assay [5] is T1, Glucocorticoid receptor. It counts as cell-based, NHDF.
Description: Transrepression activity at GR expressed in NHDF cells assessed as IL-1beta-mediated IL-6 transcription by ELISA
A further assay has as its target T2, Progesterone receptor (Homo sapiens, UniProt P06401).
T2 sequence (P06401 whole entry): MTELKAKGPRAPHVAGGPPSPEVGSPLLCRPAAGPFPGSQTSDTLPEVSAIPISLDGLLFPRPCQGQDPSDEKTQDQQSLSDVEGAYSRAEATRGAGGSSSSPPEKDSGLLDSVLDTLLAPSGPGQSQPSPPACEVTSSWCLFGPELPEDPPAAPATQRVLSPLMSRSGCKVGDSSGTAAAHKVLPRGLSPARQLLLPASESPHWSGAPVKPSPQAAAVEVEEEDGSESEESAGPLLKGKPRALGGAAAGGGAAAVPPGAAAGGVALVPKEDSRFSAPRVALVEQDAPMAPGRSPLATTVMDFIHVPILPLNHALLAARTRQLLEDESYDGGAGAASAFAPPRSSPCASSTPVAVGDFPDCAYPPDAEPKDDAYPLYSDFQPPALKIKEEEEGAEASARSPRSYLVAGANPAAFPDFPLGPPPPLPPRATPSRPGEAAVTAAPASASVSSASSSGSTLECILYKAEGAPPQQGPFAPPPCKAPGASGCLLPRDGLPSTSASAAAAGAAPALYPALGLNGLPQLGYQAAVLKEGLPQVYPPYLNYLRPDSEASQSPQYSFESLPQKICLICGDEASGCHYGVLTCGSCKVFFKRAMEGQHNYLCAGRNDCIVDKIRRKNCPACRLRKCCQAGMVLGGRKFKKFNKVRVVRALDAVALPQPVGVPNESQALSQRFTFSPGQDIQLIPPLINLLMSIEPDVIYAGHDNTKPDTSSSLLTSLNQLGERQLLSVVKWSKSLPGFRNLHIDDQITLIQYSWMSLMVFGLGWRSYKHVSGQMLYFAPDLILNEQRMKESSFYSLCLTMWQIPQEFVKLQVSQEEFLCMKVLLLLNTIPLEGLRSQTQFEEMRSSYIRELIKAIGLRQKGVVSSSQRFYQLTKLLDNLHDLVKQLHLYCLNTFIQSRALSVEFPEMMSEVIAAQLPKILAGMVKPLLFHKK
The assay is described as follows: Binding affinity to progesterone receptor.

The target of assay [6] is T3, Mineralocorticoid receptor (Homo sapiens, UniProt P08235).
T3 sequence (P08235 whole entry): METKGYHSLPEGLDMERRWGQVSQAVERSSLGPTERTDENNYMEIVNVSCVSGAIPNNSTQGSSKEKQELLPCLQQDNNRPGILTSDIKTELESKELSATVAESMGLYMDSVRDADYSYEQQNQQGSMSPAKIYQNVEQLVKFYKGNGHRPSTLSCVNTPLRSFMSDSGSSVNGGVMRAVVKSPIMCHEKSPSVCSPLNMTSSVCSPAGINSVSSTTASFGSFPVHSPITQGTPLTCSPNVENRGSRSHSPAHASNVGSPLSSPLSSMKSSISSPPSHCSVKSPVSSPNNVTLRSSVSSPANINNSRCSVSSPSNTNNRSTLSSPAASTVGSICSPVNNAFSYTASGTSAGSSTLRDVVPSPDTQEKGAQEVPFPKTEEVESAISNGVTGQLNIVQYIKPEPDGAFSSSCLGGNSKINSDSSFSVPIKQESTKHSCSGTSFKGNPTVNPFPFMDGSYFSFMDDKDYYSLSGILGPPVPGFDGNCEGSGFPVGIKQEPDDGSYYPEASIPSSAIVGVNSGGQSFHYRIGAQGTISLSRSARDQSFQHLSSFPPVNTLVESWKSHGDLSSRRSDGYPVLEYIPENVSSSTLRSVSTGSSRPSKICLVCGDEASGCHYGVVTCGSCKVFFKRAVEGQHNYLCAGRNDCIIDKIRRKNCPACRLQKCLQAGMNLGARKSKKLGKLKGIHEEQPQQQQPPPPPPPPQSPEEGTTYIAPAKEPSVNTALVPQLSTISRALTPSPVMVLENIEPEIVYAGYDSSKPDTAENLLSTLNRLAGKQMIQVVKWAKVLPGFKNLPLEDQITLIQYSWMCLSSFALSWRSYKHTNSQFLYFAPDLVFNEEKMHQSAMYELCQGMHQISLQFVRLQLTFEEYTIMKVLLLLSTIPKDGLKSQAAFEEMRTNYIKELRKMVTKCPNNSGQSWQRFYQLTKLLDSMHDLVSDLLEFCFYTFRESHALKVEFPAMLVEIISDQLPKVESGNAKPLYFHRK
The experiment in a line: Binding affinity to mineralocorticoid receptor.

By Ki is commonly meant a measure of affinity in units of concentration, obtained from inhibition or displacement. As a reminder, the EC50 is the concentration at which the effect is half-maximal. Usually IC50 stands for the concentration that inhibits the measured activity by half. Lower therefore signals higher potency. As for `C[C@H]1c2c(cc(F)c(-c3cccc4c(Cl)c[nH]c34)c2F)NC(C)(C)[C@@H]1OC(=O)NCc1ccccc1` (racemic), the Ki is 6.8 nM on Glucocorticoid receptor [1], 160 nM on Progesterone receptor and 656 nM in assay [6]. Besides, the EC50 on Glucocorticoid receptor [2] is 17 nM; on Glucocorticoid receptor [3], 454 nM. Further, the IC50 at Glucocorticoid receptor [4] was found to be 44 nM; on Glucocorticoid receptor [5], 40 nM.

As to `CC(C)NC(=O)O[C@@H]1[C@@H](C)c2c(cc(F)c(-c3cccc4c(Cl)c[nH]c34)c2F)NC1(C)C` (racemic), the Ki was 7.8 nM at Glucocorticoid receptor [1], 213 nM at Progesterone receptor and 378 nM in assay [6]. For the same compound, the EC50 on Glucocorticoid receptor [2] is 89 nM; at Glucocorticoid receptor [3] it was 361 nM. The IC50 turned out to be 45 nM on Glucocorticoid receptor [4] and 17 nM at Glucocorticoid receptor [5].

For the compound `C[C@H]1c2c(cc(F)c(-c3cccc4c(Cl)c[nH]c34)c2F)NC(C)(C)[C@@H]1OC(=O)NC1CCCCC1` (racemic), the inhibition constant (Ki) at Glucocorticoid receptor [1] came out at 4.3 nM; at Progesterone receptor, 93 nM; in assay [6] it was 2250 nM. In addition, the EC50 on Glucocorticoid receptor [2] stood at 70 nM; at Glucocorticoid receptor [3], 435 nM. The IC50 at Glucocorticoid receptor [4] is 15 nM; on Glucocorticoid receptor [5], 23 nM.

As for `CC(=O)c1ccc(NC(=O)O[C@@H]2[C@@H](C)c3c(cc(F)c(-c4cccc5cc[nH]c45)c3F)NC2(C)C)cc1` (racemic), the figures for the Ki (at Glucocorticoid receptor [1]; on Progesterone receptor; in assay [6]) were 2.9 nM, 231 nM and 1110 nM, respectively. Further, the EC50 on Glucocorticoid receptor [2] came to 16 nM; on Glucocorticoid receptor [3] it was 182 nM. The IC50 against Glucocorticoid receptor [4] was 23 nM; against Glucocorticoid receptor [5] it was 31 nM.

With `C[C@H]1c2c(cc(F)c(-c3cccc4cc[nH]c34)c2F)NC(C)(C)[C@@H]1OC(=O)Nc1cccc(C#N)c1` (racemic), the Ki at Glucocorticoid receptor [1] was 13.7 nM; on Progesterone receptor, 662 nM; in assay [6] it was 1470 nM. The EC50 at Glucocorticoid receptor [2] stood at 24 nM; on Glucocorticoid receptor [3] it was 287 nM. Moreover, the IC50 against Glucocorticoid receptor [4] was 13 nM; against Glucocorticoid receptor [5] it was 38 nM.

Take `CC(=O)c1cccc(NC(=O)O[C@@H]2[C@@H](C)c3c(cc(F)c(-c4cccc5cc[nH]c45)c3F)NC2(C)C)c1` (racemic): the Ki was found to be 9.4 nM on Glucocorticoid receptor [1], 680 nM on Progesterone receptor and 3170 nM in assay [6]. Moreover, the EC50 at Glucocorticoid receptor [2] amounted to 29 nM; on Glucocorticoid receptor [3], 333 nM. The IC50 on Glucocorticoid receptor [4] stood at 49 nM; against Glucocorticoid receptor [5], 22 nM.
